Assay results as given in US20100197724A1, “6.5 -PYRROLOPIPERIDINE TACHYKININ RECEPTOR ANTAGONISTS” (priority 2007, published 2010).
pIC50: −log10 of the molar value.

What follows are molecules tested against T1, human neurokinin-1 receptor (NK1R) (Homo sapiens, UniProt P25103) (assay: 125I-substance P binding assay of human NK1R expressed in COS or CHO cells). Details: competition with 125I-substance P.
T1 construct: expressed in transfected cells
Procedure: Receptor Expression in COS: To express the cloned human neurokinin-1 receptor (NK1R) transiently in COS, the cDNA for the human NK1R was cloned into the expression vector pCDM9 which was derived from pCDM8 (INVITROGEN) by inserting the ampicillin resistance gene (nucleotide 1973 to 2964 from BLUESCRIPT SK+) into the Sac II site. Transfection of 20 ug of the plasmid DNA into 10 million COS cells was achieved by electroporation in 800 ul of transfection buffer (135 mM NaCl, 1.2 mM CaCl2, 1.2 mM MgCl2, 2.4 mM K2HPO4, 0.6 mM KH2PO4, 10 mM glucose, 10 mM HEPES pH 7.4) at 260 V and 950 uF using the IBI GENEZAPPER (IBI, New Haven, Conn.). The cells were incubated in 10% fetal calf serum, 2 mM glutamine, 100 U/ml penicillin-streptomycin, and 90% DMEM media (GIBCO, Grand Island, N.Y.) in 5% CO2 at 37° C. for three days before the binding assay.
Stable Expression in CHO: To establish a stable cell line expressing the cloned human NK1R, the cDNA was subcloned into the vector pRcCMV (INVITROGEN). Transfection of 20 ug of the plasmid DNA into CHO cells was achieved by electroporation in 800 ul of transfection buffer supplemented with 0.625 mg/ml Herring sperm DNA at 300 V and 950 uF using the IBI GENEZAPPER (IBI). The transfected cells were incubated in CHO media [10% fetal calf serum, 100 U/ml penicillin-streptomycin, 2 mM glutamine, 1/500 hypoxanthine-thymidine (ATCC), 90% IMDM media (JRH BIOSCIENCES, Lenexa, Kans.), 0.7 mg/ml G418 (GIBCO)] in 5% CO2 at 37° C. until colonies were visible. Each colony was separated and propagated. The cell clone with the highest number of human NK1R was selected for subsequent applications such as drug screening.
Assay Protocol using COS or CHO: The binding assay of human NK1R expressed in either COS or CHO cells is based on the use of ^125I-substance P (^125I-SP, from DU PONT, Boston, Mass.) as a radioactively labeled ligand which competes with unlabeled substance P or any other ligand for binding to the human NK1R. Monolayer cell cultures of COS or CHO were dissociated by the non-enzymatic solution (SPECIALTY MEDIA, Lavallette, N.J.) and resuspended in appropriate volume of the binding buffer (50 mM Tris pH 7.5, 5 mM MnCl2, 150 mM NaCl, 0.04 mg/ml bacitracin, 0.004 mg/ml leupeptin, 0.2 mg/ml BSA, 0.01 mM phosphoramidon) such that 200 ul of the cell suspension would give rise to about 10,000 cpm of specific ^125I-SP binding (approximately 50,000 to 200,000 cells). In the binding assay, 200 ul of cells were added to a tube containing 20 ul of 1.5 to 2.5 nM of ^125I-SP and 20 ul of unlabeled substance P or any other test compound. The tubes were incubated at 4° C. or at room temperature for 1 hour with gentle shaking. The bound radioactivity was separated from unbound radioactivity by GF/C filter (BRANDEL, Gaithersburg, Md.) which was pre-wetted with 0.1% polyethylenimine. The filter was washed with 3 ml of wash buffer (50 mM Tris pH 7.5, 5 mM MnCl2, 150 mM NaCl) three times and its radioactivity was determined by gamma counter. The activation of phospholipase C by NK1R may also be measured in CHO cells expressing the human NK1R by determining the accumulation of inositol monophosphate which is a degradation product of IP3. CHO cells are seeded in 12-well plate at 250,000 cells per well. After incubating in CHO media for 4 days, cells are loaded with 0.025 uCi/ml of ^3H-myoinositol by overnight incubation. The extracellular radioactivity is removed by washing with phosphate buffered saline. LiCl is added to the well at final concentration of 0.1 mM with or without the test compound, and incubation is continued at 37° C. for […]. Substance P is added to the well at final concentration of 0.3 nM to activate the human NK1R. After 30 min of incubation at 37° C., the media is removed and 0.1 N HCl is added. Each well is sonicated at 4° C. and extracted with CHCl3/methanol (1:1). The aqueous phase is applied to a 1 ml Dowex AG 1X8 ion exchange column. […]

T1 sequence (P25103 whole entry): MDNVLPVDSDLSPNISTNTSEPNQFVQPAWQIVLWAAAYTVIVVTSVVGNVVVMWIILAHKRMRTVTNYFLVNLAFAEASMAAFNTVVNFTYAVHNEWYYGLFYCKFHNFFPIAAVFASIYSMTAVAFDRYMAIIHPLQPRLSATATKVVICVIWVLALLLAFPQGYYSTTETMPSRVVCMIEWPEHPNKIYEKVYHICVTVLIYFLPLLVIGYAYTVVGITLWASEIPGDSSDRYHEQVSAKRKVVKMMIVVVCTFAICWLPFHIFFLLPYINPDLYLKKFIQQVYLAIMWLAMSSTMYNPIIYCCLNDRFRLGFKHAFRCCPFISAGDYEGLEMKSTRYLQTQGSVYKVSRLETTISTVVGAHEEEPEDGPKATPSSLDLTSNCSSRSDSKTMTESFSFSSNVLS

With `Cc1ccccc1[C@H]1[C@@H]2CN(C(=O)[C@H](C)O)C[C@H]2CCN1C(=O)N(C)[C@H](C)c1cc(C(F)(F)F)cc(C(F)(F)F)c1` [Example 17, (3aS,4R,7aS)-N-{(1R)-1-[3,5-bis(trifluoromethyl)phenyl]ethyl}-2-[(2S)-2-hydroxypropanoyl]-N-methyl-4-(2-methylphenyl)octahydro-5H-pyrrolo[3,4-c]pyridine-5-carboxamide] as the molecule, how does the pIC50 read?
Its pIC50 is 10.09.

How did the pIC50 turn out when `Cc1ccccc1[C@H]1[C@@H]2CN(C(=O)C3CCN(C(N)=O)CC3)C[C@H]2CCN1C(=O)N(C)[C@H](C)c1cc(C(F)(F)F)cc(C(F)(F)F)c1` [Example 20, (3aS,4R,7aS)-2-{[1-(aminocarbonyl)piperidin-4-yl]carbonyl}-N-{(1R)-1-[3,5-bis(trifluoromethyl)phenyl]ethyl}-N-methyl-4-(2-methylphenyl)octahydro-5H-pyrrolo[3,4-c]pyridine-5-carboxamide] was run?
The pIC50 was 9.73.

With `Cc1ccccc1[C@H]1[C@@H]2CN(C3=CC(=O)CC3)C[C@H]2CCN1C(=O)N(C)[C@H](C)c1cc(C(F)(F)F)cc(C(F)(F)F)c1` [Example 10, (3aS,4R,7aS)-N-{(1R)-1-[3,5-bis(trifluoromethyl)phenyl]ethyl}-N-methyl-4-(2-methylphenyl)-2-(3-oxocyclopent-1-en-1-yl)octahydro-5H-pyrrolo[3,4-c]-pyridine-5-carboxamide] as the molecule, how does the pIC50 read?
The pIC50 was 10.18.

With `Cc1ccccc1[C@H]1[C@@H]2CN(C(=O)C3CCC(=O)N(C)C3)C[C@H]2CCN1C(=O)N(C)[C@H](C)c1cc(C(F)(F)F)cc(C(F)(F)F)c1` (stereo partly drawn) [Example 19, (3aS,4R,7aS)-N-{(1R)-1-[3,5-bis(trifluoromethyl)phenyl]ethyl}-N-methyl-2-[(1-methyl-6-oxopiperidin-3-yl)carbonyl]-4-(2-methylphenyl)octahydro-5H-pyrrolo[3,4-c]pyridine-5-carboxamide] as the molecule, how does the pIC50 read?
Its pIC50 is 10.05.

`Cc1cc(F)ccc1[C@H]1[C@@H]2CN(C3CCOCC3)C[C@H]2CCN1C(=O)N(C)[C@H](C)c1cc(C(F)(F)F)cc(C(F)(F)F)c1` [Example 35, (3aS,4R,7aS)-N-{(1R)-1-[3,5-bis(trifluoromethyl)phenyl]ethyl}-4-(4-fluoro-2-methylphenyl)-N-methyl-2-(tetrahydro-2H-pyran-4-yl)octahydro-5H-pyrrolo[3,4-c]pyridine-5-carboxamide] was tested. Which pIC50 did it give?
Its pIC50 is 9.95.

With `Cc1ccccc1[C@H]1C2CN(C3=NC(=O)CO3)C[C@H]2CCN1C(=O)N(C)[C@H](C)c1cc(C(F)(F)F)cc(C(F)(F)F)c1` (stereo partly drawn) [Example 12] as the molecule, how does the pIC50 read?
The pIC50 was 10.37.

With `Cc1ccccc1[C@H]1[C@@H]2CN(C(N)=O)C[C@H]2CCN1C(=O)N(C)[C@H](C)c1cc(C(F)(F)F)cc(C(F)(F)F)c1` [Example 11, (3aS,4R,7aS)-N^5-{(1R)-1-[3,5-bis(trifluoromethyl)phenyl]ethyl}-N^5-methyl-4-(2-methylphenyl)tetrahydro-1H-pyrrolo[3,4-c]pyridine-2,5(3H,4H)-dicarboxamide] as the molecule, how does the pIC50 read?
Its pIC50 is 10.22.

How did the pIC50 turn out when `O=C1C=C(N2C[C@@H]3CCN(C(=O)Cc4cc(C(F)(F)F)cc(C(F)(F)F)c4)[C@H](c4ccc(F)cc4)[C@H]3C2)CC1` (racemic) [Example 1, 3-[(3aSR,4RS,7aSR)-5-{[3,5-bis(trifluoromethyl)phenyl]acetyl}-4-(4-fluorophenyl)octahydro-2H-pyrrolo[3,4-c]pyridin-2-yl]cyclcopent-2-en-1-one] was run?
Its pIC50 is 8.77.

How did the pIC50 turn out when `Cc1cc(F)ccc1[C@H]1[C@@H]2CN(C(=O)[C@@H](C)O)C[C@H]2CCN1C(=O)N(C)[C@H](C)c1cc(C(F)(F)F)cc(C(F)(F)F)c1` [Example 31, (3aS,4R,7aS)-N-{(1R)-1-[3,5-bis(trifluoromethyl)phenyl]ethyl}-4-(4-fluoro-2-methylphenyl)-2-[(2R)-2-hydroxypropanoyl]-N-methyloctahydro-5H-pyrrolo[3,4-c]pyridine-5-carboxamide] was run?
Its pIC50 is 10.24.

With `Cc1cc(F)ccc1[C@H]1[C@@H]2CN(C(=O)C(C)(C)C)C[C@H]2CCN1C(=O)N(C)[C@H](C)c1cc(C(F)(F)F)cc(C(F)(F)F)c1` [Example 33, (3aS,4R,7aS)-N-{(1R)-1-[3,5-bis(trifluoromethyl)phenyl]ethyl}-2-(2,2-dimethylpropanoyl)-4-(4-fluoro-2-methylphenyl)-N-methyloctahydro-5H-pyrrolo[3,4-c]pyridine-5-carboxamide] as the molecule, how does the pIC50 read?
Its pIC50 is 10.18.

`Cc1ccccc1[C@H]1[C@@H]2CNC[C@H]2CCN1C(=O)N(C)[C@H](C)c1cc(C(F)(F)F)cc(C(F)(F)F)c1` [Example 9, (3aS,4R,7aS)-N-{(1R)-1-[3,5-bis(trifluoromethyl)phenyl]ethyl}-N-methyl-4-(2-methylphenyl)octahydro-5H-pyrrolo[3,4-c]pyridine-5-carboxamide] was tested. Which pIC50 did it give?
Its pIC50 is 10.39.

How did the pIC50 turn out when `Cc1cc(F)ccc1[C@H]1[C@@H]2CN(Cc3ccccc3)C[C@H]2CCN1C(=O)N(C)[C@H](C)c1cc(C(F)(F)F)cc(C(F)(F)F)c1` [Example 25, (3aS,4R,7aS)-2-benzyl-N-{(1R)-1-[3,5-bis(trifluoromethyl)phenyl]ethyl}-4-(4-fluoro-2-methylphenyl)-N-methyloctahydro-5H-pyrrolo[3,4-c]pyridine-5-carboxamide] was run?
The pIC50 was 10.28.

How did the pIC50 turn out when `CC(C(=O)N1CC[C@@H]2CN(C3=CC(=O)CC3)CC2[C@@H]1c1ccc(F)cc1)c1cc(C(F)(F)F)cc(C(F)(F)F)c1` (mixture of isomers) [Example 3, 3-[(3aSR,4RS,7aSR)-5-{2-[3,5-bis(trifluoromethyl)phenyl]propanoyl}-4-(4-fluorophenyl)octahydro-2H-pyrrolo[3,4-c]pyridin-2-yl]cyclopent-2-en-1-one] was run?
The pIC50 was 7.92.

`CC(c1cc(C(F)(F)F)cc(C(F)(F)F)c1)N(C)C(=O)N1CC[C@@H]2CN(C3=CC(=O)CC3)CC2[C@@H]1c1ccc(F)cc1` (stereo partly drawn) [Example 6] was tested. Which pIC50 did it give?
The pIC50 was 9.80.

How did the pIC50 turn out when `Cc1cc(F)ccc1[C@H]1C2CNC[C@H]2CCN1C(=O)N(C)[C@H](C)c1cc(C(F)(F)F)cc(C(F)(F)F)c1` (stereo partly drawn) [Example 26, (3aS,4R,7aS)-N-{(1R)-1-[3,5-bistrifluoromethyl)phenyl]ethyl}-4-(4-fluoro-2-methylphenyl-N-methyloctahydro-5H-pyrrolo[3,4-c]pyridine-5-carboxamide] was run?
Its pIC50 is 10.51.

`Cc1ccccc1[C@H]1C2CN(C3=CC(=O)OC3)C[C@H]2CCN1C(=O)N(C)[C@H](C)c1cc(C(F)(F)F)cc(C(F)(F)F)c1` (stereo partly drawn) [Example 13, (3aS,4R aS)-N-{(1R)-1-[3,5-bis(trifluoromethyl)phenyl]ethyl}-N-methyl-4-(2-methylphenyl)-2-(5-oxo-2,5-dihydrofuran-3-yl)octahydro-5H-pyrrolo[3,4-c]pyridine-5-carboxamide] was tested. Which pIC50 did it give?
The pIC50 was 10.08.

With `Cc1cc(F)ccc1[C@H]1C2CN(C(=O)C3CCOCC3)C[C@H]2CCN1C(=O)N(C)[C@H](C)c1cc(C(F)(F)F)cc(C(F)(F)F)c1` (stereo partly drawn) [Example 34] as the molecule, how does the pIC50 read?
The pIC50 was 10.32.

How did the pIC50 turn out when `CC(=O)N1CCC(N2C[C@H]3CCN(C(=O)N(C)[C@H](C)c4cc(C(F)(F)F)cc(C(F)(F)F)c4)[C@@H](c4ccc(F)cc4C)[C@@H]3C2)CC1` [Example 36, (3aS,4R,7aS)-2-(1-acetylpiperidin-4-yl)-N-{(1R)-1-[3,5-bis(trifluoromethyl)phenyl]ethyl}-4-(4-fluoro-2-methylphenyl)-N-methyloctahydro-5H-pyrrolo[3,4-c]pyridine-5-carboxamide] was run?
The pIC50 was 9.97.
